Legend:
MDSCs [1] = conditions: recently demonstrated, reference 30; cited from earlier work
MDSCs [2] = assay: 5FU treatment of BCG-treated mice displaying chronic inflammation; type: in vivo
Experimental: Normal C57B116 mice repeatedly exposed to heat-killed BCG were used as the mouse model for chronic inflammation^1. BCG was administered by three subcutaneous injections at 1 wk intervals, 100 μg per animal/dose; the first two doses were administrated with IFA (Incomplete Freund's adjuvant), and subsequent injections included heat-killed BCG in PBS. Unless stated otherwise, splenocytes were collected 2-3 days after the last injection. Control mice remained untreated. For experiments with chicken OVA (Sigma) as antigen, the same protocol was maintained: For a Th1 response BCG was administered as above but with OVA. For a Th2 response, the first and second injections were with 100 μg OVA adsorbed to Al(OH)3 (alum; Thermo), and the third injection was with 100 μg OVA in PBS. Experimental groups included at least three mice, and each experiment was repeated at least three times.
BCG-treated mice received three i.p. injections of 5-fluorouracil (5FU); The first 5FU injection (1 mg/mouse) was given at the day of the second BCG treatment and the second 5FU injection was given four days later. The third 5FU injection (0.5 mg/mouse) was given at the day of the third BCG treatment.
All the antibodies were purchased from Biolegend.

[3] = target: T1, SNX9 (sorting nexin 9 protein), endogenous in EL4 T cell line (Mus musculus, UniProt Q91VH2 1-595); assay: immunoprecipitation of EL4 lysate with anti-CD3δ, immunoblot for SNX9
T1 construct: Endogenous protein in a Triton X-100 lysate of EL4 T cells; also called sorting nexin-9 [Mus musculus]
T1 sequence (Q91VH2 whole entry): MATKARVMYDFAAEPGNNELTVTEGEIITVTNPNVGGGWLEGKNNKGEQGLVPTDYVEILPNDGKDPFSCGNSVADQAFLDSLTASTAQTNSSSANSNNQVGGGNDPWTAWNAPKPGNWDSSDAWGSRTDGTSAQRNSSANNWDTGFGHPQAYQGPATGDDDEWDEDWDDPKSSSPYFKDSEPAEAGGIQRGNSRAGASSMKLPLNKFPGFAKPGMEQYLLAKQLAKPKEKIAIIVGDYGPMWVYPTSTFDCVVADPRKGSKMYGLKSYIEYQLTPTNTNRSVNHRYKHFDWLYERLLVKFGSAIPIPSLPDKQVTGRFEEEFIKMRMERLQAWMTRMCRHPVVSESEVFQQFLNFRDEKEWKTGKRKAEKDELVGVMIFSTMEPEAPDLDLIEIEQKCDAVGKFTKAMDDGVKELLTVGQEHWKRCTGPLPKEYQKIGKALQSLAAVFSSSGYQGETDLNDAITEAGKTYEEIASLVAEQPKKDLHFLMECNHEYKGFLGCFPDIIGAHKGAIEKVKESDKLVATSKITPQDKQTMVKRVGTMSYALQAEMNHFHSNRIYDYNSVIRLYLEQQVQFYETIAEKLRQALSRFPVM

[4] = splenic cells of BCG+5FU treated mice vs BCG treated mice, immunoblotting, FIG. 14A

In the case of O=c1[nH]cc(F)c(=O)[nH]1 [5FU, 5-fluorouracil], the “effect on MDSCs” value (MDSCs [1]) is listed as “cytotoxic effect on MDSCs”, the “MDSCs levels (Gr1+Mac1+ double-positive cells)” value (MDSCs [2]; FACS of cells from BCG+5FU treated mice, FIG. 14B, C) is listed as “Eliminates MDSCs” and the SNX9 expression levels (MDSCs [2]; [4]) is listed as “recovery”. The “ζ chain expression levels” value (MDSCs [2]; [4]) was “recovery”.

B1: CD3δ of EL4 T cell line (receptor, UniProt P04235 22-173, looked up)
chain: FKIQVTEYEDKVFVTCNTSVMHLDGTVEGWFAKNKTLNLGKGVLDPRGIYLCNGTEQLAKVVSSVQVHYRMCQNCVELDSGTMAGVIFIDLIATLLLALGVYCFAGHETGRPSGAAEVQALLKNEQLYQPLRDREDTQYSRLGGNWPRNKKS
notes: Immunoprecipitated from EL4 lysate with anti-CD3δ antibody
B1: no binding [3].

Reference: patent publication US20140037659A1 (Yissum Research Development Company of the Hebrew …, priority 2011, published 2014)
